Assay results: patent EP1142883A1, “NOVEL HETEROCYCLIC COMPOUNDS AND DRUG COMPOSITIONS CONTAINING THE SAME” (Asahi Kasei Kabushiki Kaisha, priority 1998, dated 2000)

Legend:
[1] = Permeability through human small intestine epithelium (Caco-2 cell layer); conditions: human, Caco-2
From the text: (§1) Human colon adenocarcinoma, Caco-2 cell, when cultured, spontaneously differenciates to form a cell layer consisting of a polar single layer having microvillus similar to small intestine epithelial cell. The presence of tight junction has been found out in the membrane formed. Therefore, the above cell layer can be used as a model system of human small intestine epithelium and is recognized as the simplest system to evaluate the permeability through a membrane of a drug orally administered to human. The specific experimental method is as follows.
(§2) Before the cells reached confluence, DMEM was removed and the flask was washed with PBS (phosphate buffered saline, pH 7.2, Ca, Mg free (Gibco BRL)) and treated with trypsin/EDTA to peel off the cells, which were then harvested.
(§3) After centrifugation (1000 rpm, 5 min), the cells were resuspended in DMEM at 4.4×10^5 cells/mL. The cells were seeded into Transwell cell culture chamber (mfd. by Costar) having a collagen-coated membrane filter (3 µm pores, 0.33 cm^2 growth area) at 0.15 mL/well (2×10^5 cells/cm^2, 24 well). After seeding, DMEM was renewed every other day. After culturing for 18 to 25 days, a membrane formed having a membrane resistance of at least 200 Ω · cm^2 was applied to the drug permeation experiment.
(§4) DMEMs in the cup side and base side of Transwell were removed and then replaced with a buffer for the permeation experiment (HBSS (Hanks Balanced Salt Solution, Gibco BRL), 10 mM Mes, pH 6.5 (mfd. by DOJINDO) or 10 mM Hepes, pH 7.4 (mfd. by DOJINDO) containing 25 mM glucose and 0.05% Tween 80). The cup side buffer (0.15 mL) was maintained at pH 6.5 and the base side buffer (0.8 mL) was maintained at pH 7.4. After pre-incubation at 37°C for 10 minutes, the cup side buffer was replaced with the buffer (pH 6.5) containing a drug (20-40 µM). With additionally incubating at 37°C, 80 µL aliquot of the base side buffer was sampled with the passage of time to quantitate the amount of the drug permeated into the base side buffer.
(§5) The amount of the drug contained in the base side buffer sampled with the passage of time was divided by the time to calculate the amount of the drug permeated per unit time (sec). It was then divided by the concentration of the drug added and the surface area of the membrane to calculate the permeability coefficient (Papp). That is, the permeability coefficient (Papp) is obtained by the following calculating formula.
(§6) In this connection, the quantitation of the drug was carried out with LC/MS or HPLC (detecting with fluorescence). The conditions of LC/MS and HPLC are as follows.

human β3 = target: T1, human β3 (Homo sapiens, UniProt P13945); test: Human β3-agonist activities: cAMP in CHO cells transfected with human β3 gene; type: cell-based; conditions: for Emax: CHO, read-out: *Intrinsic Activity (%); for EC50 / *Intrinsic Activity (%): cAMP, 30 minutes, CHO cells expressing human β3; for EC50: read-out: ED50 (the source's name); for *Intrinsic Activity (%): relative value as compared with isoproterenol
T1 construct: the full length human β3 gene was obtained from a human genomic library; expressed in transfected cells; host or cells: CHO (Chinese hamster ovary) cells, pcDNA3 vector, geneticin selection
T1 sequence (P13945 whole entry): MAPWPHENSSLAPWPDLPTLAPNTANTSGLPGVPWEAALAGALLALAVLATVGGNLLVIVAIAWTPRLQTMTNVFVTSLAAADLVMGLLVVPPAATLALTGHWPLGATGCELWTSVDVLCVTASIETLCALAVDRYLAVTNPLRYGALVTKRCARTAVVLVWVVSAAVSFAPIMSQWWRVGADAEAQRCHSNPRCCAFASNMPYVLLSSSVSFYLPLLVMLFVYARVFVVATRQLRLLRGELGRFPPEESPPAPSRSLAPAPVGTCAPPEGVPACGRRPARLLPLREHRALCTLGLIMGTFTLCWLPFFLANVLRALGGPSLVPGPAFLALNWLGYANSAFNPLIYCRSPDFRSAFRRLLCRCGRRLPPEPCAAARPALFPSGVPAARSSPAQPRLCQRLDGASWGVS
Method: Human β3-agonist activities were determined using CHO (Chinese hamster ovary) cells transfected with pcDNA3 (mfd. by Invitrogen) to which human β3 gene had been inserted. Human β3 fragment was first obtained from human adipose tissue cDNA (mfd. by Clonetech) by PCR using the primer of β3 (Krief, et al., J. Clin. Invest., 91, pp. 344-349 (1993)). The human β3 fragment obtained was then used as a probe and then the full length human β3 gene was obtained from a human genomic library (mfd. by Clonetech).
The above cells were cultured in a Ham F-12 medium supplemented with 10% fetal bovine serum (mfd. by Dainippon Pharmaceutical), 400 µg/mL geneticin (Gibco BRL), 100 U/mL penicillin and 100 µg/mL streptomycin. After placing these cells (5×10^5) into a 6-well plate and culturing them for 24 hours, they were allowed to stand on a serum-free Ham F-12 medium for 2 hours. The compound was first dissolved in DMSO, repeatedly diluted by ten times with Ham F-12 supplemented with 1 mM isobutylmethylxanthine and 1 mM ascorbic acid to a final concentration of 10^-5 to 10^-12 M, and then added to the cells.
After the cells were cultured for 30 minutes, the medium was removed followed by addition of 0.5 mL of 1 N NaOH. The medium was allowed to stand for 20 minutes and then 0.5 mL of 1 N acetic acid was added to the medium. The medium was stirred and centrifuged followed by quantitating cAMP with cAMP EIA kit (mfd. by Cayman). […]

Caco-2 cell = test: Permeability through human small intestine epithelium (Caco-2 cell layer); conditions: Caco-2 layer, cup side pH 6.5, base side pH 7.4, drug 20-40 µM, 37°C
From the text: as §1, §2, §3, §4, §5, §6

| Compound | Papp A→B [1] [×10⁻⁶ cm/s] | Emax (human β3) [%] | EC50 (human β3) [nM] | Permeability Coefficient Papp × 10^-6 (cm/s) (Caco-2 cell) | *Intrinsic Activity (%) (human β3) |
| --- | --- | --- | --- | --- | --- |
| CS(=O)(=O)N1CCOc2ccc([C@@H](O)CNCCOc3ccc4c(c3)[nH]c3ccccc34)cc21 [Example 2, (R)-6-[2-[2-(9H-carbazol-2-yloxy)ethylamino]-1-hydroxyethyl]-4-(methylsulfonyl)-2,3-dihydro-1,4-benzoxazine] | 0.93 | 69 | 12 | – | – |
| CS(=O)(=O)N1COc2ccc([C@@H](O)CNCCOc3ccc4c(c3)[nH]c3ccccc34)cc21 [Example 3, (R)-5-[2-[2-(9H-carbazol-2-yloxy)ethylamino]-1-hydroxyethyl]-3-(methylsulfonyl)-2,3-dihydrobenzoxazole] | 1.03 | 70 | 65 | – | – |
| CS(=O)(=O)N1CCCOc2ccc([C@@H](O)CNCCOc3ccc4c(c3)[nH]c3ccccc34)cc21 [Example 4, (R)-7-[2-[2-(9H-carbazol-2-yloxy)ethylamino]-1-hydroxyethyl]-5-(methylsulfonyl)-2H,3H,4H-benzo[b]1,4-oxazepine] | 1.93 | 107 | 620 | – | – |
| CN(C)S(=O)(=O)n1c(=O)oc2ccc([C@@H](O)CNCCOc3ccc4c(c3)[nH]c3ccccc34)cc21 [Example 7, (R)-3-[(dimethylamino)sulfonyl]-5-[2-[2-(9H-carbazol-2-yloxy)ethylamino]-1-hydroxyethyl]-3-hydrobenzoxazol-2-one] | – | – | 100 | 0.78 × 10^-6 cm/s | 76 |
| CN(C)S(=O)(=O)n1c(=S)oc2ccc([C@@H](O)CNCCOc3ccc4c(c3)[nH]c3ccccc34)cc21 [Example 8, (R)-3-[(dimethylamino)sulfonyl]-5-[2-[2-(9H-carbazol-2-yloxy)ethylamino]-1-hydroxyethyl]-3-hydrobenzoxazol-2-thione] | – | 99 | 610 | – | – |
| O=c1[nH]c2cc([C@@H](O)CNCCOc3ccc4c(c3)[nH]c3ccccc34)ccc2o1 [Example 10, (R)-5-[2-[2-(9H-carbazol-2-yloxy)ethylamino]-1-hydroxyethyl]-3-hydrobenzoxazol-2-one] | – | – | 170 | 0.54 × 10^-6 cm/s | 99 |
| CC(C)NCC(O)c1ccc(O)c(O)c1 (stereo not drawn) [Isoproterenol, reference compound] | – | – | – | – | 100 |
